Measured values as given in the supplement of paper PMC11451515.

Tested on: SEM cells
Test: cell viability relative to DMSO control; higher = less cytotoxic
Conditions: 48 h
Method in brief: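 NOMO1, SEM and P12-Ichikawa leukemia cells spent at least four passages adapting to each medium before use. They were seeded at 500 cells/well (NOMO1, SEM) or 1000 cells/well (P12-Ichikawa) in 5 μl in 1536-well plates and pin-dosed with library compounds in DMSO at 11 threefold steps from 47 μM down to 0.79 nM. After 48 h at 37°C, CellTiter-Glo One luminescence was read. Viability is reported as a percentage of the DMSO wells on each plate, with cell-free wells as background.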

[1] = HPLM + 10% dialyzed FBS, 0.000781 µM
[2] = HPLM + 10% dialyzed FBS, 0.00234 µM
[3] = HPLM + 10% dialyzed FBS, 0.00702 µM
[4] = HPLM + 10% dialyzed FBS, 0.0211 µM
[5] = HPLM + 10% dialyzed FBS, 0.0632 µM
[6] = HPLM + 10% dialyzed FBS, 0.19 µM
[7] = HPLM + 10% dialyzed FBS, 0.569 µM
[8] = HPLM + 10% dialyzed FBS, 1.71 µM
[9] = HPLM + 10% dialyzed FBS, 5.12 µM
[10] = HPLM + 10% dialyzed FBS, 15.4 µM
[11] = HPLM + 10% dialyzed FBS, 46.1 µM
[12] = RPMI 5 mM glucose + 10% FBS, 0.000781 µM
[13] = RPMI 5 mM glucose + 10% FBS, 0.00234 µM
[14] = RPMI 5 mM glucose + 10% FBS, 0.00702 µM
[15] = RPMI 5 mM glucose + 10% FBS, 0.0211 µM
[16] = RPMI 5 mM glucose + 10% FBS, 0.0632 µM
[17] = RPMI 5 mM glucose + 10% FBS, 0.19 µM
[18] = RPMI 5 mM glucose + 10% FBS, 0.569 µM
[19] = RPMI 5 mM glucose + 10% FBS, 1.71 µM
[20] = RPMI 5 mM glucose + 10% FBS, 5.12 µM
[21] = RPMI 5 mM glucose + 10% FBS, 15.4 µM
[22] = RPMI 5 mM glucose + 10% FBS, 46.1 µM
[23] = RPMI 5 mM glucose + 10% dialyzed FBS, 0.000781 µM
[24] = RPMI 5 mM glucose + 10% dialyzed FBS, 0.00234 µM
[25] = RPMI 5 mM glucose + 10% dialyzed FBS, 0.00702 µM
[26] = RPMI 5 mM glucose + 10% dialyzed FBS, 0.0211 µM
[27] = RPMI 5 mM glucose + 10% dialyzed FBS, 0.0632 µM
[28] = RPMI 5 mM glucose + 10% dialyzed FBS, 0.19 µM
[29] = RPMI 5 mM glucose + 10% dialyzed FBS, 0.569 µM
[30] = RPMI 5 mM glucose + 10% dialyzed FBS, 1.71 µM
[31] = RPMI 5 mM glucose + 10% dialyzed FBS, 5.12 µM
[32] = RPMI 5 mM glucose + 10% dialyzed FBS, 15.4 µM
[33] = RPMI 5 mM glucose + 10% dialyzed FBS, 46.1 µM

SMILES | cell viability [1] [%] | cell viability [2] [%] | cell viability [3] [%] | cell viability [4] [%] | cell viability [5] [%] | cell viability [6] [%] | cell viability [7] [%] | cell viability [8] [%] | cell viability [9] [%] | cell viability [10] [%] | cell viability [11] [%] | cell viability [12] [%] | cell viability [13] [%] | cell viability [14] [%] | cell viability [15] [%] | cell viability [16] [%] | cell viability [17] [%] | cell viability [18] [%] | cell viability [19] [%] | cell viability [20] [%] | cell viability [21] [%] | cell viability [22] [%] | cell viability [23] [%] | cell viability [24] [%] | cell viability [25] [%] | cell viability [26] [%] | cell viability [27] [%] | cell viability [28] [%] | cell viability [29] [%] | cell viability [30] [%] | cell viability [31] [%] | cell viability [32] [%] | cell viability [33] [%]
C[N+]1(C)[C@@H]2C[C@@H](OC(=O)[C@H](CO)c3ccccc3)C[C@H]1[C@@H]1O[C@@H]12.[Br-] | 85 | 94.6 | 96.1 | 93.9 | 105 | 102 | 110 | 117 | 103 | 114 | 102 | 92.3 | 90.4 | 102 | 95.1 | 100 | 92 | 107 | 112 | 105 | 93.3 | 89.5 | 77.3 | 87.2 | 109 | 98.6 | 105 | 107 | 112 | 105 | 121 | 103 | 101
Cn1c(Nc2ccc(C(F)(F)F)cc2)nc2cc(Oc3ccnc(-c4nc(C(F)(F)F)c[nH]4)c3)ccc21 | 97.1 | 114 | 116 | 96.8 | 127 | 115 | 109 | 96.2 | 59.6 | 55.1 | 24.8 | 111 | 109 | 124 | 94.8 | 136 | 117 | 122 | 98.2 | 53.4 | 44.2 | 12.7 | 108 | 118 | 134 | 102 | 128 | 130 | 116 | 112 | 55.3 | 48.6 | 18.1
CCC1(c2ccc(N)cc2)CCC(=O)NC1=O (configuration not stated) | 114 | 113 | 127 | 114 | 118 | 114 | 107 | 55.3 | 108 | 95.1 | 96.6 | – | – | – | – | – | – | – | – | – | – | – | – | – | – | – | – | – | – | – | – | – | –
CCc1c(C(=O)C(N)=O)c2c(OCC(=O)O)cccc2n1Cc1ccccc1 | 103 | 93.2 | 94.3 | 107 | 98.7 | 104 | 102 | 98.2 | 90.8 | 88.3 | 84.5 | 101 | 100 | 116 | 110 | 90.8 | 98.4 | 111 | 111 | 114 | 88.4 | 82.6 | 92.9 | 102 | 104 | 116 | 104 | 105 | 123 | 92.7 | 106 | 91.9 | 89.3
OC[C@H](Cc1ccccc1)Nc1nc(Oc2ccc3c(c2)CCC3)nc2c1ncn2Cc1ccc(-c2ccccc2)cc1 | 90.7 | 101 | 98.5 | 107 | 108 | 78.4 | 105 | 99.2 | 103 | 80.3 | 62.9 | 85.3 | 85.9 | 91.7 | 93.8 | 89.5 | 89.2 | 95 | 97.9 | 94.7 | 80.7 | 76.7 | 80 | 97.8 | 94.3 | 89.5 | 92.4 | 89.2 | 100 | 101 | 88.5 | 84.4 | 69.9
C[S+](=O)([O-])N(Cc1ccco1)CC(O)Cn1c2ccccc2c2ccccc21 (configuration not stated) | 106 | 88.5 | 100 | 100 | 99.5 | 98 | 92.8 | 97.6 | 55.4 | 56.5 | 18.5 | 115 | 113 | 127 | 119 | 122 | 116 | 106 | 109 | 63.3 | 59.1 | 10.7 | 91.8 | 99.5 | 108 | 96.7 | 102 | 106 | 91 | 78.4 | 46.3 | 35.9 | 8.62
CC(C)(C)c1cc(C=C(C#N)C#N)cc(Br)c1O | 87 | 109 | 42.3 | 114 | 111 | 109 | 114 | 110 | 111 | 108 | 104 | 65.4 | 72.7 | 11.9 | 67.3 | 90.6 | 81.4 | 83.8 | 77.4 | 71.5 | 77.7 | 77.5 | 87.3 | 98.8 | 35.7 | 111 | 108 | 123 | 119 | 107 | 105 | 115 | 90.7
CCOC(=O)N1CCN(/[N+]([O-])=N/Oc2ccc([N+](=O)[O-])cc2[N+](=O)[O-])CC1 | 64.4 | 70.7 | 60.1 | 77.6 | 76 | 94.4 | 85.7 | 73.8 | 42.5 | 22.4 | 14 | 70.6 | 84.9 | 56.8 | 91.9 | 93.9 | 94.9 | 88.8 | 81.5 | 40.7 | 13.2 | 8.13 | 77.3 | 91.6 | 72.5 | 88.2 | 89 | 86.2 | 102 | 78.2 | 43.6 | 16.7 | 8.98
